Assay results reported in ChEMBL document CHEMBL1128633, “Synthesis and pharmacokinetics of potent carbamate HIV-1 protease inhibitors containing novel high affinity hydroxyethylamine isosteres” (Bioorg Med Chem Lett, 1995).

Key:
CEM-SS = assay: Antiviral activity against HIV-1 infected HXB2/CEM-SS cell lines.; format: functional; settings: Homo sapiens
[1] = molecular target: Human immunodeficiency virus type 1 protease (Human immunodeficiency virus 1, UniProt Q72874); assay: In vitro inhibition of HIV-1 protease.
[2] = Cmax value was determined between 15 and 30 minutes post administration in fisher rats; value ranges from 200-500; format: ADME, organism-based; settings: rat, in vivo
[3] = (§1) Compound was tested for the duration that the plasma drug concentrations remained above the IC95; format: ADME, cell-free
[4] = Peak plasma level between 0.5 and 1.0 hour in Dawley rats; value ranges from 1021-2551; format: ADME, organism-based; settings: Sprague-Dawley, rat, read-out: Plasma level
[5] = Plasma half-life following oral administration in fisher rats; format: ADME, organism-based; settings: rat
[6] = Bioavailability in fasted fisher rats; format: ADME, organism-based; settings: rat, in vivo
[7] = Plasma half-life following oral administration in Fisher rats; format: ADME, organism-based; settings: rat
[8] = Bioavailability in rat (Fisher) (fasted); format: ADME, organism-based; settings: in vivo
Rattus norvegicus = species: Rattus norvegicus; assay: as §1; format: ADME, organism-based; settings: in vivo

Row | SMILES | IC95 (CEM-SS) | IC50 [1] | further results
1 | C[C@@H]1OCC[C@@H]1OC(=O)N[C@@H](CSc1ccccc1)[C@H](O)CN1C[C@H]2CCS[C@H]2C[C@H]1C(=O)NC(C)(C)C | 162 nM | 0.28 nM | 
2 | CC(C)[C@@H]1[C@H](OC(=O)N[C@@H](Cc2ccccc2)[C@H](O)CN2C[C@H]3CCCC[C@H]3C[C@H]2C(=O)NC(C)(C)C)CCS1(=O)=O | 85 nM | 4.3 nM | 
3 | CC(C)[C@H]1[C@@H](OC(=O)N[C@@H](Cc2ccccc2)[C@H](O)CN2C[C@H]3CCCC[C@H]3C[C@H]2C(=O)NC(C)(C)C)CCS1(=O)=O | 273 nM | 8.1 nM | 
4 | CC(C)(C)NC(=O)[C@@H]1C[C@@H]2SCC[C@@H]2CN1C[C@@H](O)[C@H](CSc1ccccc1)NC(=O)O[C@@H]1CCS(=O)(=O)C1 | 59 nM | 2 nM | 
5 | C[C@@H]1[C@@H](OC(=O)N[C@@H](CSc2ccccc2)[C@H](O)CN2C[C@H]3CCS[C@H]3C[C@H]2C(=O)NC(C)(C)C)CCS1(=O)=O | 45 nM | 5.2 nM | 
6 | CC(C)[C@H]1[C@@H](OC(=O)N[C@@H](Cc2ccccc2)[C@H](O)CN2C[C@H]3CCS[C@H]3C[C@H]2C(=O)NC(C)(C)C)CCS1(=O)=O | 77 nM | 2.6 nM | 
7 | C[C@H]1[C@H](OC(=O)N[C@@H](CSc2ccccc2)[C@H](O)CN2C[C@H]3CCS[C@H]3C[C@H]2C(=O)NC(C)(C)C)CCS1(=O)=O | 44 nM | 1.4 nM | 
8 | CC(C)(C)NC(=O)[C@@H]1C[C@@H]2SCC[C@@H]2CN1C[C@@H](O)[C@H](CSc1ccccc1)NC(=O)O[C@H]1CCS(=O)(=O)C1 | 59 nM | 1.7 nM | 
9 | CC(C)[C@H]1SCC[C@H]1OC(=O)N[C@@H](Cc1ccccc1)[C@H](O)CN1C[C@H]2CCS[C@H]2C[C@H]1C(=O)NC(C)(C)C | 85 nM | 0.26 nM | 
10 | CC(C)[C@@H]1SCC[C@@H]1OC(=O)N[C@@H](Cc1ccccc1)[C@H](O)CN1C[C@H]2CCS[C@H]2C[C@H]1C(=O)NC(C)(C)C | 686 nM | 2.6 nM | 
11 | C[C@H]1OCC[C@H]1OC(=O)N[C@@H](CSc1ccccc1)[C@H](O)CN1C[C@H]2CCS[C@H]2C[C@H]1C(=O)NC(C)(C)C | 2560 nM | 3 nM | 
12 | C[C@@H]1[C@H](OC(=O)N[C@@H](CSc2ccccc2)[C@H](O)CN2C[C@H]3CCS[C@H]3C[C@H]2C(=O)NC(C)(C)C)CCS1(=O)=O | 19 nM | 0.75 nM | Cmax [2]: 200 ng/mL; Duration [3]: 5 h; Cmax [4]: 1020 ng/mL; half-life [5]: 2.53 h; bioavailability [6]: 6.3%
13 | CC(C)[C@@H]1[C@H](OC(=O)N[C@@H](Cc2ccccc2)[C@H](O)CN2C[C@H]3CCS[C@H]3C[C@H]2C(=O)NC(C)(C)C)CCS1(=O)=O | 38 nM | 1.3 nM | 
14 | CC(C)(C)NC(=O)[C@@H]1C[C@@H]2CCCC[C@@H]2CN1C[C@@H](O)[C@H](Cc1ccccc1)NC(=O)[C@H](CC(N)=O)NC(=O)c1ccc2ccccc2n1 | 21 nM |  | 
15 | CC(C)[C@H]1[C@@H](OC(=O)N[C@@H](CSc2ccccc2)[C@H](O)CN2C[C@H]3CCS[C@H]3C[C@H]2C(=O)NC(C)(C)C)CCS1(=O)=O | 89 nM |  | 
16 | CC(C)[C@@H]1[C@H](OC(=O)N[C@@H](CSc2ccccc2)[C@H](O)CN2C[C@H]3CCS[C@H]3C[C@H]2C(=O)NC(C)(C)C)CCS1(=O)=O | 9 nM |  | half-life [7]: 1.4 h; bioavailability [8]: 3.5%; Duration (Rattus norvegicus): 3 h; Cmax [2]: 200 ng/mL; Cmax [4]: 1020 ng/mL
17 | C[C@@H]1[C@H](OC(=O)N[C@@H](Cc2ccccc2)[C@H](O)CN2C[C@H]3CCCC[C@H]3C[C@H]2C(=O)NC(C)(C)C)CCS1(=O)=O | 171 nM | 10 nM | 
18 | C[C@H]1[C@@H](OC(=O)N[C@@H](CSc2ccccc2)[C@H](O)CN2C[C@H]3CCS[C@H]3C[C@H]2C(=O)NC(C)(C)C)CCS1(=O)=O | 31 nM | 0.4 nM | half-life [7]: 1.55 h; bioavailability [8]: 7.4%; Duration (Rattus norvegicus): 6 h; Cmax [2]: 200 ng/mL; Cmax [4]: 1020 ng/mL
